This note sets out measurements from paper PMC12023740, “Semi-synthesis and biological activities of heterocyclic compounds containing camphor” (RSC Advances, 2025).

In one data set the test system is A549 lung cancer cells. The data set is described as follows: MTT cytotoxicity assay, A549. Type of data set: cell-based, human. The following applies: mean ± SD of three experiments. The protocol:
(§1) MCF-7 Adenocarcinoma of the breast in humans and A549 […] lines of cells (purchased from Labco's Sigma-Aldrich) were employed to evaluate the newly synthesized compounds' anti-cancer potential. […] The American type culture collection provided the cell lines and were cultured in 10% FBS added to DMEM (Invitrogen/Life Technologies) (Hyclone), a 10 μg ml^−1 of insulin (Sigma), and a 1% penicillin-streptomycin. The suppliers of all other chemicals and reagents were either Invitrogen or Sigma.
(§2) For the MTT assay, cells were plated at a density of 1.2 to 1.8 × 10 000 cells per well in a total volume of 200 μl, comprising 100 μl of a full growing medium and 100 μl of the substance that was evaluated in each well. The cells were then incubated for 24 hours.
(§3) Aspirate the cells gently using a pipette after adding 6.0 to 8.0 ml of full growth media. […] Transfer the proper aliquots to new culture vessels, discard the supernatant, and resuspend the cell pellet in fresh growth media. For a full day, incubate the cultures at 37 °C. […] To perform the MTT assay, examine the plates using an inverted microscope.
(§4) Additionally, incorporate a blank control containing complete medium without any cells. Remove the cultures from the incubator and transfer them to a laminar flow hood or sterile workspace. […] Add the reconstituted MTT in an amount equal to 10% of the total volume of the culture medium. Return the cultures to the incubator for 2 to 4 hours, depending on the cell type and maximum cell density; typically, 2 hours is adequate, though longer incubation may be required for low-density or less metabolically active cells. It is important to maintain consistent incubation times for accurate comparisons.
(§5) Gentle mixing with a gyratory shaker will facilitate the dissolution of the crystals. In denser cultures, pipetting up and down may be necessary to ensure complete dissolution of the MTT formazan crystals. Measure the absorbance spectrophotometrically at 570 nm and assess the background absorbance of the multi-well plates at 690 nm, which should be subtracted from the 570 nm measurement. The tests in multi-well plates can be read using an appropriate plate reader, or the contents can be transferred to cuvettes for measurement.

Data set [1] relates to MCF-7 breast carcinoma cells. As to the kind of experiment: MTT cytotoxicity assay, MCF-7. Format: cell-based, human. The note with it: mean ± SD of three experiments. The protocol: as §1, §2, §3, §4, §5
The next data set addresses T1, EGFR^WT (Homo sapiens, UniProt P00533).
T1 construct: purchased 40321
The data set is described as follows: EGFR Kinase Assay Kit (Catalog # 40321), Kinase-Glo Max luminescence. The note with it: five concentrations, read-out: EGFR kinase inhibitory activity IC50. Format: biochemical. (In general: Kinase-Glo reads ATP consumption through a luciferase reaction.)

T1 sequence (P00533 668-1210 limits assumed): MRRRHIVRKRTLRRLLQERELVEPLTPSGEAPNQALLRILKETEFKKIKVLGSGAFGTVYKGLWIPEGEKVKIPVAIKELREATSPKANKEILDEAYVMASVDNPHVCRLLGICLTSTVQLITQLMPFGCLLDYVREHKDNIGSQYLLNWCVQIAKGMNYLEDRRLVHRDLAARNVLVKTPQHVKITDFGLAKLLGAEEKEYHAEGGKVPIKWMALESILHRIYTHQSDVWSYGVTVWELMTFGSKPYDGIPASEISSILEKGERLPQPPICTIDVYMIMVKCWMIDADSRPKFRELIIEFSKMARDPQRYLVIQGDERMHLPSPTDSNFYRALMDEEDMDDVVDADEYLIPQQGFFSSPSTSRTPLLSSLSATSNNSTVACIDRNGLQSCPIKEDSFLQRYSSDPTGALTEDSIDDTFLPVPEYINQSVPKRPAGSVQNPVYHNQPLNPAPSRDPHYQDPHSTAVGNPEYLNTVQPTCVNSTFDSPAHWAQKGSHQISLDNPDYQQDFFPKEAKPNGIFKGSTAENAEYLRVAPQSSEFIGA

A word on the IC50: it is the midpoint of a concentration-inhibition curve. As for `CC12CCC(C3(C1)NC(=S)NC(=N)C3C#N)C2(C)C` (stereo not shown) [Compound 6, 6′-Imino-4,7,7-trimethyl-2′-thioxotetrahydro-1′H-spiro[bicyclo[2.2.1]heptane-2,4′-pyrimidine]-5′-carbonitrile], the IC50 with A549 lung cancer cells (Homo sapiens, A549, MTT test) is 28.5 ± 0.99 µM; in data set [1] (Homo sapiens, MCF7, MTT test), 19.9 ± 0.73 µM.

Regarding `CC12CCC(C3(C1)NC(=S)NC(=O)C3C#N)C2(C)C` (stereo not shown) [Compound 7, 4,7,7-Trimethyl-6′-oxo-2′-thioxotetrahydro-1′H-spiro[bicyclo[2.2.1]heptane-2,4′-pyrimidine]-5′-carbonitrile], the IC50 stood at 22.2 ± 0.77 µM with A549 lung cancer cells (Homo sapiens, A549, MTT test) and 10.1 ± 0.39 µM in data set [1] (Homo sapiens, MCF7, MTT test).

For `CC(=O)C1C(=O)NC(=S)NC12CC1(C)CCC2C1(C)C` (stereo not shown) [Compound 8, 5′-Acetyl-4,7,7-trimethyl-2′-thioxodihydro-1′H-spiro[bicyclo[2.2.1]heptane-2,4′-pyrimidin]-6′(5′H)-one], the IC50 with A549 lung cancer cells (Homo sapiens, A549, MTT test) was 3.34 ± 0.12 µM; in data set [1] (Homo sapiens, MCF7, MTT test) it was 6.15 ± 0.23 µM.

Turning to `CC12CCC(C3(C1)NC(=O)NC(=N)C3C#N)C2(C)C` (stereo not shown) [Compound 10, 6′-Imino-4,7-trimethyl-2′-oxotetrahydro-1′H-spiro[bicyclo[2.2.1]heptane-2,4′-pyrimidine]-5′-carbonitrile], the IC50 in the data set with A549 lung cancer cells (Homo sapiens, A549, MTT test) worked out at 23.3 ± 0.81 µM; in data set [1] (Homo sapiens, MCF7, MTT test), 12.7 ± 0.47 µM.

Take `CC12CCC(C3(C1)NC(=O)NC(=O)C3C#N)C2(C)C` (stereo not shown) [Compound 11, 4,7,7-Trimethyl-2′,6′-dioxotetrahydro-1′H-spiro[bicyclo[2.2.1]heptane-2,4′-pyrimidine]-5′-carbonitrile]: the IC50 in the data set on A549 lung cancer cells (Homo sapiens, A549, MTT test) is 56.6 ± 2.01 µM; in data set [1] (Homo sapiens, MCF7, MTT test) it was 35 ± 1.32 µM.

On to `CC(=O)C1C(=O)NC(=O)NC12CC1(C)CCC2C1(C)C` (stereo not shown) [Compound 12, 5′-Acetyl-4,7,7-trimethyl-1′H-spiro[bicyclo[2.2.1]heptane-2,4′-pyrimidine]-2′,6′(3′H,5′H)-dione], for which the IC50 in the data set on A549 lung cancer cells (Homo sapiens, A549, MTT test) stood at 14.4 ± 0.5 µM; in data set [1] (Homo sapiens, MCF7, MTT test) it was 3.2 ± 0.12 µM.

Regarding `Cc1ccc(-c2cs/c(=N/N=C3/CC4CCC3(C)C4(C)C)[nH]2)cc1` (stereo not shown) [Compound 16a], the IC50 with A549 lung cancer cells (Homo sapiens, A549, MTT test) came out at 4.13 ± 0.14 µM; in data set [1] (Homo sapiens, MCF7, MTT test), 2.16 ± 0.08 µM.

On to `CC12CCC(C/C1=N/N=c1\[nH]c(-c3ccc(Cl)cc3)cs1)C2(C)C` (stereo not shown) [Compound 16b], for which the half-maximal inhibitory concentration (IC50) with A549 lung cancer cells (Homo sapiens, A549, MTT test) was 15.2 ± 0.53 µM; in data set [1] (Homo sapiens, MCF7, MTT test), 8.29 ± 0.3 µM.

Regarding `CC12CCC(C/C1=N/N=c1\[nH]c(-c3ccc(Br)cc3)cs1)C2(C)C` (stereo not shown) [Compound 16c], the IC50 in the data set with A549 lung cancer cells (Homo sapiens, A549, MTT test) was 1.29 ± 0.04 µM; in data set [1] (Homo sapiens, MCF7, MTT test), 2.84 ± 0.1 µM.

For the compound `CC12CCC(C/C1=N/N=C/c1cn(-c3ccc(S(N)(=O)=O)cc3)nc1-c1ccc(Br)cc1)C2(C)C` (stereo not shown) [Compound 20], the IC50 stood at 1.69 ± 0.06 µM with A549 lung cancer cells (Homo sapiens, A549, MTT test); 0.78 ± 0.03 µM in data set [1] (Homo sapiens, MCF7, MTT test); 198 nM on EGFR^WT.

`Cc1nc(Nc2ncc(C(=O)Nc3c(C)cccc3Cl)s2)cc(N2CCN(CCO)CC2)n1` [Dasatinib, reference compound]: the IC50 turned out to be 11.8 µM with A549 lung cancer cells (Homo sapiens, A549, MTT test); 11.8 ± 0.41 µM in the data set with A549 lung cancer cells (MTT test); 7.99 ± 0.29 µM in data set [1] (Homo sapiens, MCF7, MTT test).

Turning to `COc1cccc2c1C(=O)c1c(O)c3c(c(O)c1C2=O)C[C@@](O)(C(=O)CO)C[C@@H]3O[C@H]1C[C@H](N)[C@H](O)[C@H](C)O1` [Doxorubicin, reference compound], the IC50 was found to be 2.43 ± 0.08 µM in the data set with A549 lung cancer cells (Homo sapiens, A549, MTT test); 3.1 µM in data set [1] (Homo sapiens, MCF7, MTT test); 3.12 ± 0.11 µM in data set [1] (MTT test).

Consider `C#Cc1cccc(Nc2ncnc3cc(OCCOC)c(OCCOC)cc23)c1` [Erlotinib, reference compound], for which the IC50 in data set [1] (Homo sapiens, MCF7, MTT test) was 13.9 ± 1.3 µM.
